{"source": "patent US20040253656A1", "about": "“Method for measuring inositol triphosphate” (priority 2003, published 2004)", "key": {"CHOM1 cells": {"system": "CHOM1 cells", "assay": "Cellular assay: IP3 levels in CHOM1 cells after carbachol, measured by scintillation proximity assay", "type": "cell-based", "conditions": "20 mM LiCl, Carbachol 0.01 mM to 100 mM, 1 minute, FIG. 3", "experimental": "Standard curves were generated, by displacing labelled IP3, using a range of known concentrations of unlabelled IP3. Reactions were conducted in 96 well Corning NBS microplates in a total volume of […]. The assays were carried out using 10 mMTris/[…] pH 7.0 containing 400 ng of the biotinylated GST-tagged PLC, protein, 10 nCi [^3H] IP3 (spec activity 23.0 Ci/mmol, Amersham), and 1 mg of streptavidin coated PVT beads. Plates were incubated on ice for 2 hours and the plates then read using a Microbeta microplate scintillation counter. Standard curves were also run in the presence of dodecyl trimethyl ammonium bromide (DTAB; lysis reagent 1) and alpha-cyclodextrin (lysis reagent 2) at final concentrations of 0.3% lysis solution 1 and 2% lysis reagent 2 (FIG. 2).\nCells (CHOM1; 2×10^5) were seeded onto a 24 well tissue culture plate and grown overnight at 37° C., 95/5% (air/CO2). Following overnight incubation, media were aspirated and the cells were washed 1× with PBS (phosphate buffered saline). Fresh media were added containing 20 mM LiCl (final concentration of lithium chloride) and the cells were incubated for 30 minutes at 37° C. in a humidified atmosphere (95/5%, air/CO2). […] The plate was incubated on ice for approximately 16 hours and the plate counted using a Microbeta microplate scintillation counter at 1 minute/well."}, "PLCδ1/PH domain": {"target": "T1, PLCδ1/PH domain (Homo sapiens, UniProt P51178)", "T1 sequence (P51178 21-130 limits assumed)": "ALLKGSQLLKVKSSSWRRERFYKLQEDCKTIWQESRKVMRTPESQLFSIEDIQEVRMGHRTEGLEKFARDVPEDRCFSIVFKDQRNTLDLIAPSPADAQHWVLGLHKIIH", "conditions": "Lemmon & Ferguson (2001), read-out: affinity for IP3; cited from earlier work"}}}
{"smiles": "C[N+](C)(C)CCOC(N)=O", "note": "[carbachol, Carbachol]", "values": [{"measurement": "effect on cellular levels of IP3", "setting": "CHOM1 cells", "value": "stimulatory effect"}]}
{"smiles": "O=P(O)(O)O[C@@H]1[C@H](O)[C@H](O)[C@@H](OP(=O)(O)O)[C@H](OP(=O)(O)O)[C@H]1O", "note": "[IP3, Inositol 1,4,5-trisphosphate]", "values": [{"measurement": "Kd", "setting": "PLCδ1/PH domain", "value": 200, "unit": "nM"}]}
